According to article PMC6211257, “Synthesis and cytotoxic activities of novel copper and silver complexes of 1,3-diaryltriazene-substituted sulfonamides” (Journal of Enzyme Inhibition and Medicinal Chemistry, 2018):

tested on: human colorectal adenocarcinoma (DLD-1) cells; assay: MTT cytotoxicity assay, DLD-1; type: cell-based; settings: Homo sapiens, DLD-1, cancer cell, 48 h, means of three independent experiments
Excerpt: (§1) The cells studied were obtained from the American Type Culture Collection (ATCC, Manassas, VA), and included human colorectal adenocarcinoma (DLD-1), cervix carcinoma (HeLa), breast adenocarcinoma (MDA-MB-231), colon adenocarcinoma (HT-29), endometrial adenocarcinoma (ECC-1), prostate cancer (DU-145 and PC-3), normal embryonic kidney (HEK-293), normal prostate epithelium (PNT-1A), and normal retinal pigment epithelium (ARPE-19) cells. As recommended by ATCC, cells were subjected to propagation using DMEM-F12 and RPMI-1640 media, with supplements 10% fetal bovine serum, L-glutamine (2 mM), penicillin (100 U/mL) and streptomycin ([…]) in a humidified atmosphere (5% CO2) at 37 °C. When the cultures reached 70–80% confluence, the cells were harvested using 0.25% trypsin (Sigma).
(§2) Cytotoxic activities were based on the reduction of (3–(4,5-dimethylthiazol-2-yl)-2,5-diphenyltetrazolium bromide) (MTT) by mitochondrial dehydrogenase of viable cells to give a blue formazan product which can be measured spectrophotometrically by UV–Vis measurements. MTT colorimetric assays were performed using 96 well plates. The cells were seeded in a 96 well plate at concentration 5.0 × 10^4 cells/well and incubated at 37 °C for 24 h. After treatment with various concentrations of the test compound (1, 5, 10, 25, 50, 100 and 200 μM), the cells were incubated for an additional 48 h at 37 °C. After incubation, the medium was removed, and the cells in each well were incubated with 100 μL MTT solution (5 mg/mL) for 4 h at 37 °C. MTT solutions were then discarded, and 100 μL DMSO were added to dissolve insoluble formazan crystals. Optical densities were measured at 570 nm (Varioskan Flash Multimode Reader, Thermo, Waltham, MA). Data were obtained from triplicate wells. Cytotoxic effects were determined in reference to negative controls (vehicle treated cells). Cytotoxicity was expressed as the mean percentage increase relative to the unexposed control (mean ± SD). All statistical analyses were performed using SPSS package program for Windows (Version 20, Chicago, IL). Control values were set to 0% cytotoxicity. Cytotoxicity data, where appropriate, were fitted to sigmoidal curves and a four-parameter logistic model was used to calculate the IC50 values, the concentration of material causing 50% inhibition, compared to the untreated controls. 5-Fluorouracil (5-FU) was also used as a control agent[21]^,[22].

| SMILES | IC50 |
| --- | --- |
| O=c1[nH]cc(F)c(=O)[nH]1 [Compound 5-FU, 5-Fluorouracil, reference compound] | 50.2 ± 21 µM |
| NS(=O)(=O)c1cccc(N/N=N/c2ccc(F)cc2)c1 [Compound L1, 3–(3-(4-fluorophenyl)triaz-1-en-1-yl) benzenesulfonamide] | 140 ± 11 µM |
| COc1ccc(/N=N/Nc2cccc(S(N)(=O)=O)c2)cc1 [Compound L2, 3–(3-(4-methoxyphenyl)triaz-1-en-1-yl)] | 223 ± 8.3 µM |
| NS(=O)(=O)c1cccc(N/N=N/c2ccc(C(=O)O)cc2)c1 [Compound L3, 4–(3–(3-sulfamoylphenyl)triaz-2-en-1-yl) benzoic acide] | > 300 µM |

tested on: cervix carcinoma (HeLa) cells; assay: MTT cytotoxicity assay, HeLa; type: cell-based, human; settings: Homo sapiens, HeLa, 48 h, cancer cell, MTT, means of three independent experiments
Excerpt: as §1, §2

| SMILES | IC50 |
| --- | --- |
| O=c1[nH]cc(F)c(=O)[nH]1 [Compound 5-FU, 5-Fluorouracil, reference compound] | 19.2 µM |
| NS(=O)(=O)c1cccc(N/N=N/c2ccc(F)cc2)c1 [Compound L1, 3–(3-(4-fluorophenyl)triaz-1-en-1-yl) benzenesulfonamide] | 179 ± 16 µM |
| COc1ccc(/N=N/Nc2cccc(S(N)(=O)=O)c2)cc1 [Compound L2, 3–(3-(4-methoxyphenyl)triaz-1-en-1-yl)] | 768 ± 6.5 µM |
| NS(=O)(=O)c1cccc(N/N=N/c2ccc(C(=O)O)cc2)c1 [Compound L3, 4–(3–(3-sulfamoylphenyl)triaz-2-en-1-yl) benzoic acide] | > 300 µM |

same assay, conditions: cancer cell, MTT, 48 h, means of three independent experiments

| SMILES | IC50 |
| --- | --- |
| O=c1[nH]cc(F)c(=O)[nH]1 [Compound 5-FU, 5-Fluorouracil, reference compound] | 19.2 ± 1.2 µM |

tested on: breast adenocarcinoma (MDA-MB-231) cells; assay: MTT cytotoxicity assay, MDA-MB-231; type: cell-based, human; settings: Homo sapiens, MDA-MB-231, cancer cell, 48 h, means of three independent experiments
Excerpt: as §1, §2

| SMILES | IC50 |
| --- | --- |
| O=c1[nH]cc(F)c(=O)[nH]1 [Compound 5-FU, 5-Fluorouracil, reference compound] | 22.4 ± 2.5 µM |
| NS(=O)(=O)c1cccc(N/N=N/c2ccc(F)cc2)c1 [Compound L1, 3–(3-(4-fluorophenyl)triaz-1-en-1-yl) benzenesulfonamide] | 104 ± 28.2 µM |
| COc1ccc(/N=N/Nc2cccc(S(N)(=O)=O)c2)cc1 [Compound L2, 3–(3-(4-methoxyphenyl)triaz-1-en-1-yl)] | 144 ± 2.4 µM |
| NS(=O)(=O)c1cccc(N/N=N/c2ccc(C(=O)O)cc2)c1 [Compound L3, 4–(3–(3-sulfamoylphenyl)triaz-2-en-1-yl) benzoic acide] | > 300 µM |

tested on: colon adenocarcinoma (HT-29) cells; assay: MTT cytotoxicity assay, HT-29; type: cell-based, human; settings: Homo sapiens, HT-29, cancer cell, 48 h, means of three independent experiments
Excerpt: as §1, §2

| SMILES | IC50 |
| --- | --- |
| O=c1[nH]cc(F)c(=O)[nH]1 [Compound 5-FU, 5-Fluorouracil, reference compound] | 24.2 ± 2.4 µM |
| NS(=O)(=O)c1cccc(N/N=N/c2ccc(F)cc2)c1 [Compound L1, 3–(3-(4-fluorophenyl)triaz-1-en-1-yl) benzenesulfonamide] | 79.4 ± 15.4 µM |
| COc1ccc(/N=N/Nc2cccc(S(N)(=O)=O)c2)cc1 [Compound L2, 3–(3-(4-methoxyphenyl)triaz-1-en-1-yl)] | 265 ± 30 µM |
| NS(=O)(=O)c1cccc(N/N=N/c2ccc(C(=O)O)cc2)c1 [Compound L3, 4–(3–(3-sulfamoylphenyl)triaz-2-en-1-yl) benzoic acide] | > 300 µM |

tested on: endometrial adenocarcinoma (ECC-1) cells; assay: MTT cytotoxicity assay, ECC-1; type: cell-based, human; settings: Homo sapiens, ECC-1, cancer cell, 48 h, means of three independent experiments
Excerpt: as §1, §2

| SMILES | IC50 |
| --- | --- |
| O=c1[nH]cc(F)c(=O)[nH]1 [Compound 5-FU, 5-Fluorouracil, reference compound] | 30.6 ± 3.5 µM |
| NS(=O)(=O)c1cccc(N/N=N/c2ccc(F)cc2)c1 [Compound L1, 3–(3-(4-fluorophenyl)triaz-1-en-1-yl) benzenesulfonamide] | 239 ± 27.5 µM |
| COc1ccc(/N=N/Nc2cccc(S(N)(=O)=O)c2)cc1 [Compound L2, 3–(3-(4-methoxyphenyl)triaz-1-en-1-yl)] | > 300 µM |
| NS(=O)(=O)c1cccc(N/N=N/c2ccc(C(=O)O)cc2)c1 [Compound L3, 4–(3–(3-sulfamoylphenyl)triaz-2-en-1-yl) benzoic acide] | 197 ± 23.5 µM |

tested on: prostate cancer (DU-145) cells; assay: MTT cytotoxicity assay, DU-145; type: cell-based, human; settings: Homo sapiens, DU-145; MTT, 48 h; unit given as M; read-out: IC50 prostate cancer (DU-145)
Excerpt: as §1, §2

| SMILES | IC50 |
| --- | --- |
| NS(=O)(=O)c1cccc(N/N=N/c2ccc(F)cc2)c1 [Compound L1, 3–(3-(4-fluorophenyl)triaz-1-en-1-yl) benzenesulfonamide] | 29 µM |

same assay, conditions: Homo sapiens, DU-145; cancer cell, MTT, 48 h, means of three independent experiments; read-out: IC50 DU-145

| SMILES | IC50 |
| --- | --- |
| O=c1[nH]cc(F)c(=O)[nH]1 [Compound 5-FU, 5-Fluorouracil, reference compound] | 37.3 ± 5.8 µM |
| NS(=O)(=O)c1cccc(N/N=N/c2ccc(F)cc2)c1 [Compound L1, 3–(3-(4-fluorophenyl)triaz-1-en-1-yl) benzenesulfonamide] | 29 ± 2.9 µM |
| COc1ccc(/N=N/Nc2cccc(S(N)(=O)=O)c2)cc1 [Compound L2, 3–(3-(4-methoxyphenyl)triaz-1-en-1-yl)] | 154 ± 25.6 µM |
| NS(=O)(=O)c1cccc(N/N=N/c2ccc(C(=O)O)cc2)c1 [Compound L3, 4–(3–(3-sulfamoylphenyl)triaz-2-en-1-yl) benzoic acide] | 186 ± 20.6 µM |

same assay, conditions: from IC50 values DU-145 vs PNT1-A

| SMILES | selectivity between prostate cancer cell line (DU-145) and normal prostate cells (PNT1-A) |
| --- | --- |
| NS(=O)(=O)c1cccc(N/N=N/c2ccc(F)cc2)c1 [Compound L1, 3–(3-(4-fluorophenyl)triaz-1-en-1-yl) benzenesulfonamide] | high selectivity |

tested on: prostate cancer (PC-3) cells; assay: MTT cytotoxicity assay, PC-3; type: cell-based, human; settings: Homo sapiens, PC-3, cancer cell, 48 h, means of three independent experiments
Excerpt: as §1, §2

| SMILES | IC50 |
| --- | --- |
| O=c1[nH]cc(F)c(=O)[nH]1 [Compound 5-FU, 5-Fluorouracil, reference compound] | 45.5 ± 4.5 µM |
| NS(=O)(=O)c1cccc(N/N=N/c2ccc(F)cc2)c1 [Compound L1, 3–(3-(4-fluorophenyl)triaz-1-en-1-yl) benzenesulfonamide] | 168 ± 18.5 µM |
| COc1ccc(/N=N/Nc2cccc(S(N)(=O)=O)c2)cc1 [Compound L2, 3–(3-(4-methoxyphenyl)triaz-1-en-1-yl)] | 171 ± 20.5 µM |
| NS(=O)(=O)c1cccc(N/N=N/c2ccc(C(=O)O)cc2)c1 [Compound L3, 4–(3–(3-sulfamoylphenyl)triaz-2-en-1-yl) benzoic acide] | > 300 µM |

tested on: normal embryonic kidney (HEK-293) cells; assay: MTT cytotoxicity assay, HEK-293; type: cell-based, human; settings: Homo sapiens, HEK293, normal cell, 48 h, means of three independent experiments
Excerpt: as §1, §2

| SMILES | IC50 |
| --- | --- |
| O=c1[nH]cc(F)c(=O)[nH]1 [Compound 5-FU, 5-Fluorouracil, reference compound] | 65.3 ± 8.6 µM |
| NS(=O)(=O)c1cccc(N/N=N/c2ccc(F)cc2)c1 [Compound L1, 3–(3-(4-fluorophenyl)triaz-1-en-1-yl) benzenesulfonamide] | 132 ± 16.4 µM |
| COc1ccc(/N=N/Nc2cccc(S(N)(=O)=O)c2)cc1 [Compound L2, 3–(3-(4-methoxyphenyl)triaz-1-en-1-yl)] | 146 ± 13.4 µM |
| NS(=O)(=O)c1cccc(N/N=N/c2ccc(C(=O)O)cc2)c1 [Compound L3, 4–(3–(3-sulfamoylphenyl)triaz-2-en-1-yl) benzoic acide] | > 300 µM |

tested on: normal prostate epithelium (PNT-1A) cells; assay: MTT cytotoxicity assay, PNT-1A; type: cell-based, human; settings: Homo sapiens, PNT1A, 48 h, unit given as M, read-out: IC50 normal prostate cells (PNT1-A)
Excerpt: as §1, §2

| SMILES | IC50 |
| --- | --- |
| NS(=O)(=O)c1cccc(N/N=N/c2ccc(F)cc2)c1 [Compound L1, 3–(3-(4-fluorophenyl)triaz-1-en-1-yl) benzenesulfonamide] | 195 µM |

same assay, conditions: Homo sapiens, PNT1A, normal cell, 48 h, means of three independent experiments, read-out: IC50 PNT-1A

| SMILES | IC50 |
| --- | --- |
| O=c1[nH]cc(F)c(=O)[nH]1 [Compound 5-FU, 5-Fluorouracil, reference compound] | 142 ± 18.6 µM |
| NS(=O)(=O)c1cccc(N/N=N/c2ccc(F)cc2)c1 [Compound L1, 3–(3-(4-fluorophenyl)triaz-1-en-1-yl) benzenesulfonamide] | 195 ± 23.5 µM |
| COc1ccc(/N=N/Nc2cccc(S(N)(=O)=O)c2)cc1 [Compound L2, 3–(3-(4-methoxyphenyl)triaz-1-en-1-yl)] | > 300 µM |
| NS(=O)(=O)c1cccc(N/N=N/c2ccc(C(=O)O)cc2)c1 [Compound L3, 4–(3–(3-sulfamoylphenyl)triaz-2-en-1-yl) benzoic acide] | > 300 µM |

tested on: normal retinal pigment epithelium (ARPE-19) cells; assay: MTT cytotoxicity assay, ARPE-19; type: cell-based, human; settings: Homo sapiens, ARPE-19, normal cell, 48 h, means of three independent experiments
Excerpt: as §1, §2

| SMILES | IC50 |
| --- | --- |
| O=c1[nH]cc(F)c(=O)[nH]1 [Compound 5-FU, 5-Fluorouracil, reference compound] | 75.3 ± 7.5 µM |
| NS(=O)(=O)c1cccc(N/N=N/c2ccc(F)cc2)c1 [Compound L1, 3–(3-(4-fluorophenyl)triaz-1-en-1-yl) benzenesulfonamide] | 279 ± 33.8 µM |
| COc1ccc(/N=N/Nc2cccc(S(N)(=O)=O)c2)cc1 [Compound L2, 3–(3-(4-methoxyphenyl)triaz-1-en-1-yl)] | > 300 µM |
| NS(=O)(=O)c1cccc(N/N=N/c2ccc(C(=O)O)cc2)c1 [Compound L3, 4–(3–(3-sulfamoylphenyl)triaz-2-en-1-yl) benzoic acide] | > 300 µM |
